# Patent US11491132B2, “Methods for treating thrombocytopenia” (Enzychem Lifesciences Corporation, priority 2014, dated 2022)
# How the values were obtained:
# Assay type in all cases: cell-based
# [1] = test system: PKCθ/p38 MAPK/ERK pathway; experiment: Dephosphorylation of p38 MAPK and ERK1/2 in PLAG-treated RBL-2H3 cells, western blot; details: PLAG pre-incubated RBL-2H3 cells, IgE-antigen complex stimulation
# Protocol: Dephosphorylation of p38 MAPK and ERK1/2 in PLAG-treated RBL-2H3 cells is determined by western blot analysis using anti-phospho-p38 and anti-phospho-ERK1/2 respectively. To activate the p38 and ERK1/2 in RBL-2H3 cells, the cells are sensitized with 50 ng/mL of anti-DNP-IgE overnight. After washing with PBS three times, 20 ng/ml of DNP-HSA is added. Each cell lysate for western blot is prepared in the PLAG-treated RBL-2H3 cells in a dose-dependent manner and incubated for the same time (15 min). β-actin is used as internal controls. ERK1/2 and p38 phosphorylation start immediately after IgE-antigen complex stimulation and remain sufficiently activated for 5 min.
# STAT6 = target: T1, STAT6 (Homo sapiens, UniProt P42226); experiment: Dephosphorylation of STAT6 in PLAG treated cells, western blot; design: endogenous in cells; host or cells: U937, A549, Jurkat; details: U937, Jurkat and A549 cells; PLAG 0.01 to 10 μg/ml; 15 min after 10 ng/ml IL-4
# T1 sequence (P42226 1-847): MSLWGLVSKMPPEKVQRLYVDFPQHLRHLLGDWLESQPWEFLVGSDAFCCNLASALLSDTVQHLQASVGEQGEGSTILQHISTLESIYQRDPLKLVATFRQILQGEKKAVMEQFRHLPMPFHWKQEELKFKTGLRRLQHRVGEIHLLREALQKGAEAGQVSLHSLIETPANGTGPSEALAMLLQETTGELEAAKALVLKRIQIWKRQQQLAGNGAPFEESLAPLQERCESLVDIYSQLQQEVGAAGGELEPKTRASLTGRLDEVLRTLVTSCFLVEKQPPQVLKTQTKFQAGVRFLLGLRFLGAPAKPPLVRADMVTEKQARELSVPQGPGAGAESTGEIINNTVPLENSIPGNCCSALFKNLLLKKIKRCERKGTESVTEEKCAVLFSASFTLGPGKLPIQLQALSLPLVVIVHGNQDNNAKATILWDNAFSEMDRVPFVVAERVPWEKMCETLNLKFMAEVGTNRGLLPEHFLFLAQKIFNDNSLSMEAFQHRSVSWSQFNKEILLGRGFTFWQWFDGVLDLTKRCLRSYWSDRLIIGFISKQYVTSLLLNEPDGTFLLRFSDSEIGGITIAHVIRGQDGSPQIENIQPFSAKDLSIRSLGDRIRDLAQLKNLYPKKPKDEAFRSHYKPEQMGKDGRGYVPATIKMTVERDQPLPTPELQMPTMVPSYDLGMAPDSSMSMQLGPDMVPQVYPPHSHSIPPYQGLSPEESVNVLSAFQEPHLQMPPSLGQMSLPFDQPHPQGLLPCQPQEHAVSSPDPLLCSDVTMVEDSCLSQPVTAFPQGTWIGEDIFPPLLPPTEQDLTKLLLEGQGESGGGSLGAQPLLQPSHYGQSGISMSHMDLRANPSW
# Protocol: (§1) Dephosphorylation of STAT6 is examined using anti-phosphorylated STAT6 in U937, A549, and Jurkat cell lysates treated with PLAG concentration from 0.01 to 10 μg/ml. Phosphorylation of STAT6 is induced by treatment with 10 ng/ml of IL-4. Dephosphorylation of STAT1 is examined in the U937 cell lysate treated with PLAG (0.01 to 10 μg/ml). Phosphorylation of STAT1 is induced by 10 ng of IFN-γ treatment. Dephosphorylation of STAT1 and STAT6 is examined at 15 min after stimulation with IFN-γ and IL-4 respectively, in the PLAG pretreated cells. […] The transcriptional activity of STAT6 is decreased by the dephosphorylation of STAT6. […] No effect of PLAG on STAT1 phosphorylation is observed.
# STAT1 = target: T2, STAT1 (Homo sapiens, UniProt P42224); experiment: Dephosphorylation of STAT1 in U937 cell lysate, western blot; design: endogenous in cells; host or cells: U937; details: U937 cells; PLAG 0.01 to 10 μg/ml; 15 min after 10 ng IFN-γ
# T2 sequence (P42224 1-750): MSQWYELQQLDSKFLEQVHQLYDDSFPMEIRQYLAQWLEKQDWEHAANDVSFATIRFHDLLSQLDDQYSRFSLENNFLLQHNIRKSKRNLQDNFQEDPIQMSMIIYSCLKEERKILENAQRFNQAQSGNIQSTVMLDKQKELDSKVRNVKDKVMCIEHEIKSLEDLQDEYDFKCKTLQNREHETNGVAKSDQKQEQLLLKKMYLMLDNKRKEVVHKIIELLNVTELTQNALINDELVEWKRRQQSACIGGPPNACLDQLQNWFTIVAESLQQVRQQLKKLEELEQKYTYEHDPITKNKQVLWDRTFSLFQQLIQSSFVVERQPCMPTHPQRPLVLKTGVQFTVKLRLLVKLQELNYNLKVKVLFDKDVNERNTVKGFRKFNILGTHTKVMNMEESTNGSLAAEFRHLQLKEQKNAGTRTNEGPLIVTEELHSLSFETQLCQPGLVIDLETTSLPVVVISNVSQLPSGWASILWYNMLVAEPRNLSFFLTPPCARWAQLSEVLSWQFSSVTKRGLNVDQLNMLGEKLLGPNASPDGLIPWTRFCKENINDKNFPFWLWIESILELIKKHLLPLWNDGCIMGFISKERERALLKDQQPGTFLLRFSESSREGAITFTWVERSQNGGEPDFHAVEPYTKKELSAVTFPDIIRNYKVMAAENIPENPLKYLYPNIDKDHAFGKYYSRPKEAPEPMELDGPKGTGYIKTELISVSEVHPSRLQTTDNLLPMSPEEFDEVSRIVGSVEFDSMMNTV
# Protocol: as §1
smiles,measurement,setting,value
"CCCCC/C=C\C/C=C\CCCCCCCC(=O)OC(COC(C)=O)COC(=O)CCCCCCCCCCCCCCC (racemic) [PLAG, 1-palmitoyl-2-linoleoyl-3-acetylglycerol]",ERK1/2 and p38 phosphorylation,[1],down-regulated
same,IL-4 treatment induced STAT6 phosphorylation,STAT6,inhibited with increasing PLAG concentrations
same,STAT1 phosphorylation,STAT1,No effect
